The values below come from patent US10639327B1, “Nano-calcium carbonate” (Washington University in St. Louis, priority 2015, dated 2020).

Assay [1] concerns 2F2B cells. As to the kind of experiment: Fluorescent micrographs of cells treated with DOX nanoparticles vs free DOX. It is filed as cell-based. As to conditions: 30 min treatment, DOX fluorescence. The protocol:
FIG. 4A depicts fluorescent micrographs showing 2F2B cells treated for 30 min with αvβ3-targeted perfluorocarbon nanoparticles incorporating DOX (Left) vs. equimolar exposure of free DOX (Middle).
Not only was significant amount delivered to the nucleus (white arrow), the cytoplasmic content of DOX remained high (yellow arrow), providing a continuous source of DOX for nuclear translocation. […] The data also confirm that DOX fluorescence, which was used to obtain these images, will provide sufficient contrast for imaging DOX's intracellular trafficking to the nuclei.

The test system of assay [2] is HT1080 tumors. The conditions noted are these: I.V., 0.3-0.4 g/Kg (~10x the nanoparticle dosage).
Experimental: For determining pHe changes in vivo post bolus particle Intravenous injection, HT1080 tumors were grown subcutaneously in dorsal flanks of athymic nude mice, in dorsal bilateral flanks. Tumors generally grew in one flank. When the tumors growth reached approximately 50 mm^3 or greater, the extracellular pH was measured using an external pH electrode. […] Treatments were discontinued for at least 5 days before performing the in vivo pH measurements. […] The pH was measured using an extracellular pH electrode implanted into the tumor following a 15 min equilibration period after electrode entry. The pH electrode was calibrated within the week. About 1 mg of each size of particles (20 nm, 100 nm, 300 nm) in a 100 μL solution of PBS, CaCl2, MgCl2 and 2% bovine serum albumin was injected intravenously in individual mice. […] Tumor sizes at time of injection for this experiment were 12 mm×9 mm (20 nm particles), 13.7 mm×12.5 mm (100 nm), 13.5 mm×15.5 mm (300 nm), 12.5×16.5 mm (0.84% bicarbonate), 12.5×16.5 mm (7.5% bicarbonate), and 12.5×16.5 mm (vector). In general, the pH was then followed each minute for a minimum of 1 hour, or up to 3 hours if any changes were seen. […] Bleeding, if any, was also noted.

For the compound `COc1cccc2c1C(=O)c1c(O)c3c(c(O)c1C2=O)C[C@@](O)(C(=O)CO)C[C@@H]3O[C@H]1C[C@H](N)[C@H](O)[C@H](C)O1` [free DOX, Doxorubicin], the “cytoplasmic content of DOX” value in assay [1] is on record as “depleted rapidly”.

`O=C([O-])O.[Na+]` [sodium bicarbonate]: in assay [2], the “tumor pH change” value is “did not induce a measurable pH change”.
